# Tested on: TAG-β signalling (PAI-1 promoter, HepG2 cells)
# Assay: Assay 1: PAI-1 promoter luciferase reporter assay in HepG2 cells exposed to TAG-β
# Format: cell-based
# Settings: for IC50: Homo sapiens, HepG2
# Experimental: The assay was performed in HepG2 cells stably transfected with the PAI-1 promoter (known to be a strong TAG-β responsive promoter) linked to a luciferase (firefly) reporter gene. The compounds were selected on their ability to inhibit luciferase activity in cells exposed to TAG-β. In addition cells were transfected with a second luciferase (Renilla) gene which was not driven by a TAG-β responsive promoter and was used as a toxicity control.
# (96 well-)microplates are seeded, using a multidrop apparatus, with the stably transfected cell line at a concentration of 35000 cells per well in 200 μl of serum-containing medium. These plates are placed in a cell incubator.
# 18 to 24 hours later (Day 2), cell-incubation procedure is launched. Cells are incubated with TAG-β and a candidate compound (TAG-β inhibitor) at concentrations in the range 50 nM to 10 μM (final concentration of DMSO 1%). The final concentration of TAG-β(rhTGFβ-1) used in the test is 1 ng/mL. Cells are incubated with a candidate compound 15-30 mins prior to the addition of TAGβ. The final volume of the test reaction is 150 μl. Each well contains only one candidate compound and its effect on the PAI-1 promoter is monitored.
# Columns 11 and 12 are employed as controls. Column 11 contains 8 wells in which the cells are incubated in the presence of TAGβ, without a candidate compound. Column 11 is used to determine the ‘reference TAG-β induced firefly luciferase value’ against which values measured in the test wells (to quantify inhibitory activity) may be compared. In wells A12 to D12, cells are grown in medium without TAG-β. The firefly luciferase values obtained from these positions are representive of the ‘basal firefly luciferase activity’. In wells E12 to H12, cells are incubated in the presence of TAG-β and 500 μM CPO (Cyclopentenone, Sigma), a cell toxic compound.
# 12 to 18 hours later (day 3), the luciferase quantification procedure is launched. The following reactions are performed using reagents obtained from a Dual Luciferase Assay Kit (Promega). Cells are washed and lysed with the addition of 10 μl of passive lysis buffer (Promega). Following agitation (15 to 30 mins), luciferase activities of the plates are read in a dual-injector luminometer (BMG lumistar). For this purpose, 50 μl of luciferase assay reagent and 50 μl of ‘Stop & Glo’ buffer are injected sequentially to quantify the activities of both luciferases. The mean Luciferase activity value obtained in wells A11 to H11 (Column 11, TAG-β only) is considered to represent 100% and values obtained in wells A12 to D12 (cells in medium alone) gives a basal level (0%). For each of the compounds tested, a concentration response curve is constructed from which an IC50 value can be determined graphically.
IC50 [µM],Structure (SMILES),"firefly and renilla luciferase activities relative to column 11 (TAG-β only) (500 μM CPO with TAG-β, toxicity control wells E12 to H12)"
≤ 5,"Nc1nc(-c2ccccn2)c(-c2ccc3ncccc3n2)s1 [Example 2, 5-([1,5]Naphthyridin-2-yl)4-pyridin-2-yl-1,3-thiazol-2-amine]",
,"O=C1C=CCC1 [CPO, Cyclopentenone, reference compound]",around 50%
≤ 5,"Cc1cccc(-c2nc(N)sc2-c2ccc3ncccc3n2)n1 [Example 3, 4-(6-Methyl-pyridin-2-yl)-5-([1,5]naphthyridin-2-yl)-1,3-thiazol-2-amine]",

Structure (SMILES),IC50 [µM],"firefly and renilla luciferase activities relative to column 11 (TAG-β only) (500 μM CPO with TAG-β, toxicity control wells E12 to H12)"
"Nc1nc(-c2ccccn2)c(-c2ccnc3ccccc23)s1 [Example 1, 4-(Pyridin-2-yl)-5-quinolin-4-yl-1,3-thiazol-2-amine]",≤ 5,
